Source: ChEMBL document CHEMBL1153655, “Rational design and synthesis of a novel, selective class of thrombin inhibitors: P1-argininal derivatives incorporating P3P4 quaternary lactam dipeptide surrogates” (Bioorg Med Chem Lett, 1997)

Key:
Coagulation factor X [1] = target: T1, Coagulation factor X (Homo sapiens, UniProt P00742); test: The compound was tested in vitro for inhibitory activity against Coagulation factor X
Serine protease 1 = Serine protease 1 (Homo sapiens, UniProt P07477); test: The compound was tested in vitro for inhibitory activity against human trypsin
Prothrombin = Prothrombin (Homo sapiens, UniProt P00734); test: The compound was tested in vitro for inhibitory activity against Coagulation factor II
Coagulation factor X [2] = target: T1, Coagulation factor X; test: The compound was tested in vitro for inhibitory activity against Coagulation factor X; Inactive
Coagulation factor X [3] = target: T1, Coagulation factor X; test: The compound was tested in vitro for inhibitory activity against Coagulation factor X; inactive

T1 sequence (P00742 41-179 limits assumed): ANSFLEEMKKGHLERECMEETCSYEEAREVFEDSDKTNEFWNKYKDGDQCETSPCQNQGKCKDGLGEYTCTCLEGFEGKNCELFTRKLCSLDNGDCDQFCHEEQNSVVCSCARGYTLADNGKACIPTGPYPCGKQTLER
T1 sequence (P00742 235-488 limits assumed): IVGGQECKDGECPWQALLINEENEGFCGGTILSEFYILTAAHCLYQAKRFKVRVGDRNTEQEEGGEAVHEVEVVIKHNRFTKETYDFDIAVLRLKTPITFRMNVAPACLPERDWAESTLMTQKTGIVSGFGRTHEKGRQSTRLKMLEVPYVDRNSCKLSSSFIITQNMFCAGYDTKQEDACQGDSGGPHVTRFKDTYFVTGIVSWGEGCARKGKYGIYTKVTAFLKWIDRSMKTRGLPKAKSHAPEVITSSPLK
Sequence of Serine protease 1 (P07477 whole entry): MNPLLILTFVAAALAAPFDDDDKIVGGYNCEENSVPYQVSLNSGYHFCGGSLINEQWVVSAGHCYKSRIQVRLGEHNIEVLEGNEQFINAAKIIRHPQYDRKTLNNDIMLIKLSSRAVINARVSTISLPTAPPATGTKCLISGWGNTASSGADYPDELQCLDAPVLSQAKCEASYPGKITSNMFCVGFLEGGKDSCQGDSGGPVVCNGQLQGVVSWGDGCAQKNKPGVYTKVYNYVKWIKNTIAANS

Question: `N=C(N)N1CCC[C@H](NC(=O)CN2CCC[C@H](NS(=O)(=O)Cc3ccccc3)C2=O)C1O` (some centres undefined) was tested. Which IC50 (Coagulation factor X [1]) did it give?
Answer: > 2500 nM

Question: What about the IC50 (Serine protease 1) of the same compound?
Answer: 1270 nM

Question: With `N=C(N)N1CCC[C@H](NC(=O)CN2CCCC[C@@](N)(Cc3ccccc3)C2=O)C1O` (some centres undefined) as the compound, how does the IC50 (Coagulation factor X [1]) read?
Answer: > 2500 nM

Question: And the IC50 (Prothrombin)?
Answer: 14.9 nM

Question: And the IC50 (Serine protease 1)?
Answer: 969 nM

Question: What does the source list for `N=C(N)N1CCC[C@H](NC(=O)CN2CCC(NS(=O)(=O)Cc3ccccc3)C2=O)C1O` (some centres undefined)?
Answer: IC50 (Coagulation factor X [1]): > 2500 nM; IC50 (Prothrombin): 125 nM; IC50 (Serine protease 1): 538 nM

Question: With `N=C(N)N1CCC[C@H](NC(=O)CN2CCC[C@@](N)(Cc3ccccc3)C2=O)C1O.O=C(O)C(F)(F)F` (some centres undefined) as the compound, how does the IC50 (Coagulation factor X [2]) read?
Answer: Not Active

Question: And the IC50 (Prothrombin)?
Answer: 2.07 nM

Question: What about the IC50 (Serine protease 1) of the same compound?
Answer: 139 nM

Question: Which results are given for `N=C(N)N1CCC[C@H](NC(=O)CN2CCC[C@](N)(Cc3ccccc3)C2=O)C1O.O=C(O)C(F)(F)F` (some centres undefined)?
Answer: IC50 (Coagulation factor X [3]): Not Active; IC50 (Prothrombin): 138 nM; IC50 (Serine protease 1): 2500 nM

Question: For `CS(=O)(=O)NC1(Cc2ccccc2)CCCN(CC(=O)N[C@H]2CCCN(C(=N)N)C2O)C1=O` (some centres undefined), which IC50 (Coagulation factor X [1]) is on record?
Answer: > 2500 nM

Question: And the IC50 (Prothrombin)?
Answer: 31.9 nM

Question: What about the IC50 (Serine protease 1) of the same compound?
Answer: 52.2 nM

Question: With `COC(=O)NC1(Cc2ccccc2)CCCCN(CC(=O)N[C@H]2CCCN(C(=N)N)C2O)C1=O` (some centres undefined) as the compound, how does the IC50 (Coagulation factor X [1]) read?
Answer: 2500 nM

Question: What about the IC50 (Prothrombin) of the same compound?
Answer: 466 nM

Question: And the IC50 (Serine protease 1)?
Answer: 2500 nM

Question: How did the IC50 (Coagulation factor X [2]) turn out when `N=C(N)N1CCC[C@H](NC(=O)CN2CCCC[C@](N)(Cc3ccccc3)C2=O)C1O.O=C(O)C(F)(F)F` (some centres undefined) was run?
Answer: Not Active

Question: What about the IC50 (Prothrombin) of the same compound?
Answer: 193 nM

Question: What about the IC50 (Serine protease 1) of the same compound?
Answer: 2500 nM

Question: Which results are given for `N=C(N)N1CCC[C@H](NC(=O)CN2CC[C@@](N)(Cc3ccccc3)C2=O)C1O` (some centres undefined)?
Answer: IC50 (Coagulation factor X [1]): 2500 nM; IC50 (Prothrombin): 1380 nM; IC50 (Serine protease 1): 1380 nM

Question: For `N=C(N)N1CCC[C@H](NC(=O)CN2CCCC[C@H](NS(=O)(=O)Cc3ccccc3)C2=O)C1O` (some centres undefined), which IC50 (Coagulation factor X [1]) is on record?
Answer: 22.8 nM

Question: What about the IC50 (Prothrombin) of the same compound?
Answer: 0.71 nM

Question: What about the IC50 (Serine protease 1) of the same compound?
Answer: 152 nM
